ChEMBL document CHEMBL1143137, “Synthesis, in vitro and in vivo activity of thiamine antagonist transketolase inhibitors” (Bioorg Med Chem Lett, 2008)
Activity calls are given as the source filed them. No cut-off for these calls is given here.

What was measured:
Transketolase [1] = molecular target: T1, Transketolase (Homo sapiens, UniProt P29401); test: Inhibition of transketolase by TPPK/apo-TK coupled assay
T1 sequence (P29401 whole entry): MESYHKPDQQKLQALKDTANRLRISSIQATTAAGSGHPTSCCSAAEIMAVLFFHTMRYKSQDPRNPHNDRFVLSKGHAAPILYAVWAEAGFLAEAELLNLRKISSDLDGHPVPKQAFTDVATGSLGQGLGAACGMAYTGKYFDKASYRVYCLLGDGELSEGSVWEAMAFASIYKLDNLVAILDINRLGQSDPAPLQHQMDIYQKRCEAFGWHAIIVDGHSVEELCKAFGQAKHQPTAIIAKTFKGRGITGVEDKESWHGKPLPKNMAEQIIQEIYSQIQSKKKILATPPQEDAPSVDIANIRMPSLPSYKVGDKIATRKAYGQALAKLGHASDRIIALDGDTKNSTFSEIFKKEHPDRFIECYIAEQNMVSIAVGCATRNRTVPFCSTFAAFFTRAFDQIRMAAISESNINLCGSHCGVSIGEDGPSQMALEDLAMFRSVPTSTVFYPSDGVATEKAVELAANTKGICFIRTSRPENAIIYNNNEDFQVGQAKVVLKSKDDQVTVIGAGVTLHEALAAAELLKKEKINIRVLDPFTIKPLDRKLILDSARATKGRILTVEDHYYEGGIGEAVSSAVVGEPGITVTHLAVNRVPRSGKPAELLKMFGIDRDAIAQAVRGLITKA

Transketolase [2] = molecular target: T1, Transketolase; test: Inhibition of human transketolase in HCT116 cells; assay type: cell-based, HCT-116
Transketolase [3] = molecular target: T1, Transketolase; test: Binding affinity to apo-transketolase
HCT-116 = test: Antitumor activity against human HCT116 cells xenografted mouse assessed as reduction in tumor size at 100 mg/kg, iv bid for 2 weeks; assay type: functional, organism-based; design: dose 100 mg/kg
Mus musculus [4] = test: Inhibition of transketolase activity in human HCT116 cells xenografted mouse at 100 mg/kg, iv bid for 2 weeks; assay type: functional, organism-based; design: dose 100 mg/kg; settings: HCT-116
Mus musculus [5] = test: Inhibition of alphaKGDH activity in human HCT116 cells xenografted mouse at 100 mg/kg, iv bid for 2 weeks; assay type: functional, organism-based; design: dose 100 mg/kg; settings: HCT-116
Mus musculus [6] = test: Inhibition of G6PD activity in human HCT116 cells xenografted mouse at 100 mg/kg, iv bid for 2 weeks; assay type: functional, organism-based; design: dose 100 mg/kg; settings: HCT-116

Kd (Transketolase [1]) [µM]	EC50 (Transketolase [2]) [µM]	SMILES	further results
0.027	2	Cc1ccc(C[n+]2csc([C@@H](O)CO)c2C)c(N)n1	
0.025	0.056	Cc1ccc(C[n+]2c(C)sc(CCO)c2C)c(N)n1	
0.036	0.49	Cc1ccc(C[n+]2cc(CCO)sc2C)c(N)n1	
0.104	0.16	Cc1c(CCO)sc[n+]1Cc1ccc(C(F)(F)F)nc1N	
0.034	0.0083	Cc1cc(C)c(C[n+]2csc(CCO)c2C)c(N)n1	
0.023	0.8	CC(=O)Nc1ccc(C[n+]2csc(CCO)c2C)c(N)n1	
	2.3	COC(=O)CCc1sc[n+](Cc2ccc(C)nc2N)c1C	
	1.3	Cc1ccc(C[n+]2csc(CCCO)c2C)c(N)n1	
0.036		Cc1c(CCO)sc[n+]1Cc1cccnc1N	
0.057	0.36	Cc1c(CCO)sc[n+]1Cc1ccc(C#N)nc1N	
0.046		Cc1c(CCO)sc[n+]1Cc1ccc(Cl)nc1N	
	2.2	Cc1ccc(C[n+]2csc(CCC#N)c2C)c(N)n1	
0.028	0.05	Cc1ccc(C[n+]2csc([C@H](O)CO)c2C)c(N)n1	
0.053	0.3	Cc1ccc(C[n+]2csc(C(O)CO)c2C)c(N)n1 (configuration not stated)	
0.033	0.026	Cc1ccc(C[n+]2csc(CCO)c2C)c(N)n1	Activity (HCT-116): inactive; Activity (Mus musculus [4]): Active; Activity (Mus musculus [5]): Active; Activity (Mus musculus [6]): inactive
0.04	0.95	CCc1c(CCO)sc[n+]1Cc1ccc(C)nc1N	
0.01	0.0087	CCc1ccc(C[n+]2csc(CCO)c2C)c(N)n1	
	0.0047	CC(=O)OCCc1sc[n+](Cc2ccc(C)nc2N)c1C	
0.025	0.57	Cc1ccc(C[n+]2csc(CCO)c2CO)c(N)n1	

Second part, the molecule before the results:

SMILES	Kd (Transketolase [1]) [µM]	EC50 (Transketolase [2]) [µM]	further results
Cc1cncc(C[n+]2csc(CCO)c2C)c1	0.22	38	
Cc1ccc(C[n+]2c(C(C)O)sc(CCO)c2C)c(N)n1 (configuration not stated)	0.12	0.03	
Cc1ccc(C[n+]2c(Cc3cccnc3)sc(CCO)c2C)c(N)n1		0.84	
Cc1c(CCO)sc[n+]1Cc1c(C(F)(F)F)cc(C(F)(F)F)nc1N	1.46		
Cc1c(CCO)sc[n+]1Cc1cnccc1N	0.064	24	
Cc1c(CCO)sc[n+]1Cc1ccc(C(F)(F)F)nc1	0.31	0.47	
Cc1c(CCO)sc[n+]1Cc1cc(I)cnc1N	0.109	1	
Cc1ccc(C[n+]2csc(CCOP(=O)(O)OP(=O)(O)O)c2C)c(N)n1			Kd (Transketolase [3]): 0.022 µM
Cc1c(CCO)sc[n+]1Cc1ccc(C(=O)c2ccccc2C(=O)O)nc1	0.14	3.1	
Cc1ccc(C[n+]2c(-c3ccc4c(c3)OCO4)sc(CCO)c2C)c(N)n1		25	
Cc1ccc(C[n+]2csc(CCO)c2)c(N)n1	0.029		
Cc1c(CCO)sc[n+]1Cc1ccc(N)nc1	0.007	1.6	
CCc1sc(CCO)c(C)[n+]1Cc1ccc(C)nc1N	0.075	0.021	
